The source of these data is ChEMBL document CHEMBL4507268 (2021).

As a reminder, the inhibition is how much of the control response was suppressed.

For experiment [1], the target named is Wee1-like protein kinase 2 (Homo sapiens) (UniProt P0C1S8). The following applies: Compound concentration 1000.0 nM.
Experiment [2] addresses Cyclin-dependent kinase 4 (Homo sapiens) (UniProt P11802). The following applies: Compound concentration 1000.0 nM.
In experiment [3] the test system is Epidermal growth factor receptor (Homo sapiens), P00533 [G719C]. The following applies: Compound concentration 1000.0 nM.
In experiment [4] the target is Cytoplasmic tyrosine-protein kinase BMX (Homo sapiens) (UniProt P51813). The following applies: Compound concentration 1000.0 nM.
Experiment [5] has as its system Tyrosine-protein kinase ABL1 (Homo sapiens), P00519 [T315I]. The following applies: Compound concentration 1000.0 nM.
Experiment [6] deals with Calcium/calmodulin-dependent protein kinase type II subunit delta (Homo sapiens) (UniProt Q13557). Conditions: Compound concentration 1000.0 nM.
Experiment [7] concerns the target Serine/threonine-protein kinase WNK1 (Homo sapiens) (UniProt Q9H4A3). Conditions: Compound concentration 1000.0 nM.
For experiment [8], the target named is Platelet-derived growth factor receptor beta (Homo sapiens) (UniProt P09619). The following applies: Compound concentration 1000.0 nM.
Experiment [9] addresses Dual specificity mitogen-activated protein kinase kinase 2 (Homo sapiens) (UniProt P36507). The following applies: Compound concentration 1000.0 nM.
For experiment [10], the system named is Tyrosine-protein kinase ABL1 (Homo sapiens), P00519 [F317I]. The following applies: Compound concentration 1000.0 nM.
Experiment [11] has as its target Mitogen-activated protein kinase 9 (Homo sapiens) (UniProt P45984). Conditions: Compound concentration 1000.0 nM.
The subject of experiment [12] is Serine/threonine-protein kinase B-raf (Homo sapiens), P15056 [V600E]. Conditions: Compound concentration 1000.0 nM.
Experiment [13] addresses Activin receptor type-1-like (Homo sapiens) (UniProt P37023). Conditions: Compound concentration 1000.0 nM.
For experiment [14], the target named is Bone morphogenetic protein receptor type-1B (Homo sapiens) (UniProt O00238). The following applies: Compound concentration 1000.0 nM.
Experiment [15] addresses Focal adhesion kinase 1 (Homo sapiens) (UniProt Q05397). Conditions: Compound concentration 1000.0 nM.
In experiment [16] the target is 5'-AMP-activated protein kinase catalytic subunit alpha-2 (Homo sapiens) (UniProt P54646). Conditions: Compound concentration 1000.0 nM.
For experiment [17], the target named is Serine/threonine-protein kinase Nek5 (Homo sapiens) (UniProt Q6P3R8). The following applies: Compound concentration 1000.0 nM.
Chain of Serine/threonine-protein kinase Nek5 (Homo sapiens) (Q6P3R8 whole entry): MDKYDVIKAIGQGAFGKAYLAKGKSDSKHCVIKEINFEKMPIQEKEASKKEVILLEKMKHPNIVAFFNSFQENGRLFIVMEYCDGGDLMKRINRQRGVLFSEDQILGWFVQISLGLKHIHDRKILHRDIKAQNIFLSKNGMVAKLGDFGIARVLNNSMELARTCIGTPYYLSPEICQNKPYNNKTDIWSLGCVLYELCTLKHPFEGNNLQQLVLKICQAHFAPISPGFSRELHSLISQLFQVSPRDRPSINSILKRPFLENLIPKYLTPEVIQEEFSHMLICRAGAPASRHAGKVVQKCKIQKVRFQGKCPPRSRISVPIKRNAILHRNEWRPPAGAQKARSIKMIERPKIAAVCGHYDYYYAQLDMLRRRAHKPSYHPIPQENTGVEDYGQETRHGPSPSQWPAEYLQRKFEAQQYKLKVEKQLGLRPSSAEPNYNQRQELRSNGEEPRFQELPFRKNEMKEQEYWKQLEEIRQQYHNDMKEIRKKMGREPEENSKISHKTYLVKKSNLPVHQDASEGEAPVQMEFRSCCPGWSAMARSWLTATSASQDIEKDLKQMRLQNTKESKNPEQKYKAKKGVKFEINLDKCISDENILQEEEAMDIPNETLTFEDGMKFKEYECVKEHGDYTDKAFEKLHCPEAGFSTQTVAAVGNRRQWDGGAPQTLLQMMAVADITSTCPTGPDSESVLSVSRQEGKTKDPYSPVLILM
Experiment [18] has as its target T1, Serine/threonine-protein kinase Nek1 (Homo sapiens) (UniProt Q96PY6).
T1 sequence (whole entry): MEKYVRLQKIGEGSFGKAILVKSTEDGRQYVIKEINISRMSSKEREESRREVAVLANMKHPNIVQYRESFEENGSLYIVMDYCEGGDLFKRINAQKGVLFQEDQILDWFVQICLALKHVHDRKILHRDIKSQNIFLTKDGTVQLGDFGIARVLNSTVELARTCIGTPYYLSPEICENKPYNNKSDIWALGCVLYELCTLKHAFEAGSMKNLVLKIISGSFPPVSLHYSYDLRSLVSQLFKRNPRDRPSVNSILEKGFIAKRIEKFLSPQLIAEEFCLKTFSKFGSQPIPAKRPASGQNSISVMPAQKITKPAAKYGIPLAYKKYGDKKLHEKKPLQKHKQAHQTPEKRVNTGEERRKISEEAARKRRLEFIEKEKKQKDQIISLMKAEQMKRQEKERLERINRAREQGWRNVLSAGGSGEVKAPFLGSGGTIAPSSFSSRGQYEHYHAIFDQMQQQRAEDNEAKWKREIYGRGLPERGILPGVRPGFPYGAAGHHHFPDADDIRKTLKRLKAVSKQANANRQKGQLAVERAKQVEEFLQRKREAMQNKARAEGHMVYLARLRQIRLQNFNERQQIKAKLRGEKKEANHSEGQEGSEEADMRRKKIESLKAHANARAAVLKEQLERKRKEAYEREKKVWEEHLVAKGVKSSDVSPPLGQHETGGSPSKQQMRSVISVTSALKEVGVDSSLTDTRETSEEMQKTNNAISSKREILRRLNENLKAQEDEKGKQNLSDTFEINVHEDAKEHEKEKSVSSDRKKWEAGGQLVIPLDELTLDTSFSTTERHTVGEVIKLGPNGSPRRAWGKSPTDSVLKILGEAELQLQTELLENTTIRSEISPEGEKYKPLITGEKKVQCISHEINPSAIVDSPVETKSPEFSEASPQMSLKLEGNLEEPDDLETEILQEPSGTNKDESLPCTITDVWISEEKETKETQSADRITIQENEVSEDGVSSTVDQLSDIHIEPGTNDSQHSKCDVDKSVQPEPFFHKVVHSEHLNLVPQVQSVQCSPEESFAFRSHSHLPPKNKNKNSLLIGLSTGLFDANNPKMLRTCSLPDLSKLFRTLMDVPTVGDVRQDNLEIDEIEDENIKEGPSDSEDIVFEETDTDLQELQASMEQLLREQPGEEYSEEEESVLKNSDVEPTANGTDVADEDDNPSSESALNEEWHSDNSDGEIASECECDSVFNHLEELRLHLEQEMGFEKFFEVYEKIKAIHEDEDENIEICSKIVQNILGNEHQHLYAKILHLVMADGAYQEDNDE
Conditions: Compound concentration 1000.0 nM.

For experiment [19], the target named is Myotonin-protein kinase (Homo sapiens) (UniProt Q09013). Conditions: Compound concentration 1000.0 nM.
Experiment [20] concerns Receptor-type tyrosine-protein kinase FLT3 (Homo sapiens), P36888 [N841I]. Conditions: Compound concentration 1000.0 nM.
The target in experiment [21] is Sigma intracellular receptor 2 (Homo sapiens, UniProt Q5BJF2). Conditions: Compound concentration 10.0 uM.
Chain of Sigma intracellular receptor 2 (Q5BJF2 whole entry): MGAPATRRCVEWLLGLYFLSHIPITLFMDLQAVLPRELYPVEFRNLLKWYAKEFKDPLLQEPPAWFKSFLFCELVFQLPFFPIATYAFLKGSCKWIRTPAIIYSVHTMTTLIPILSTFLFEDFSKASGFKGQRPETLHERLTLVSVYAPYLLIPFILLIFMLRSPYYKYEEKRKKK
Experiment [22] has as its system Epidermal growth factor receptor (Homo sapiens), P00533 [G719S]. Conditions: Compound concentration 1000.0 nM.

Structures are written as SMILES.

Chain of Serine/threonine-protein kinase B-raf (Homo sapiens), P15056 [V600E] (P15056 whole entry V600E): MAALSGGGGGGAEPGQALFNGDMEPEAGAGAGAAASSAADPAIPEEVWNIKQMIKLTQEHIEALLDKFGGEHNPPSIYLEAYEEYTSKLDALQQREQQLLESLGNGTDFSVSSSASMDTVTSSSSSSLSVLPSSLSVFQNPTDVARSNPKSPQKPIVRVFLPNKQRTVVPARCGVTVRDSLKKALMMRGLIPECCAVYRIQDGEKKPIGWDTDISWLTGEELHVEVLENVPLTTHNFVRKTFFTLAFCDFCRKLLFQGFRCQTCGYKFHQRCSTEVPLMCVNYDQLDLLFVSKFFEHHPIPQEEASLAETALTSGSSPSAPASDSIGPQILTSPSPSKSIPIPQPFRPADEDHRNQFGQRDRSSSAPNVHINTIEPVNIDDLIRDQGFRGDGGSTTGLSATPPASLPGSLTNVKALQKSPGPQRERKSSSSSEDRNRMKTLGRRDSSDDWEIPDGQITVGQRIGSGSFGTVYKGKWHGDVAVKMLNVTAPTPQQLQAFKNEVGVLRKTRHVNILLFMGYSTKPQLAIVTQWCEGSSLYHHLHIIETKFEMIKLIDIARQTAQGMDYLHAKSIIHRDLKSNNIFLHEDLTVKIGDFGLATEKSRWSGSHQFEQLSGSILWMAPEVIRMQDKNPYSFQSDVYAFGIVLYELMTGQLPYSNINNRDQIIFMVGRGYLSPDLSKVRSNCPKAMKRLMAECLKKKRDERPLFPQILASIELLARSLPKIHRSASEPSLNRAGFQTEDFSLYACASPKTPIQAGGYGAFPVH
Chain of Serine/threonine-protein kinase WNK1 (Homo sapiens) (Q9H4A3 whole entry, looked up): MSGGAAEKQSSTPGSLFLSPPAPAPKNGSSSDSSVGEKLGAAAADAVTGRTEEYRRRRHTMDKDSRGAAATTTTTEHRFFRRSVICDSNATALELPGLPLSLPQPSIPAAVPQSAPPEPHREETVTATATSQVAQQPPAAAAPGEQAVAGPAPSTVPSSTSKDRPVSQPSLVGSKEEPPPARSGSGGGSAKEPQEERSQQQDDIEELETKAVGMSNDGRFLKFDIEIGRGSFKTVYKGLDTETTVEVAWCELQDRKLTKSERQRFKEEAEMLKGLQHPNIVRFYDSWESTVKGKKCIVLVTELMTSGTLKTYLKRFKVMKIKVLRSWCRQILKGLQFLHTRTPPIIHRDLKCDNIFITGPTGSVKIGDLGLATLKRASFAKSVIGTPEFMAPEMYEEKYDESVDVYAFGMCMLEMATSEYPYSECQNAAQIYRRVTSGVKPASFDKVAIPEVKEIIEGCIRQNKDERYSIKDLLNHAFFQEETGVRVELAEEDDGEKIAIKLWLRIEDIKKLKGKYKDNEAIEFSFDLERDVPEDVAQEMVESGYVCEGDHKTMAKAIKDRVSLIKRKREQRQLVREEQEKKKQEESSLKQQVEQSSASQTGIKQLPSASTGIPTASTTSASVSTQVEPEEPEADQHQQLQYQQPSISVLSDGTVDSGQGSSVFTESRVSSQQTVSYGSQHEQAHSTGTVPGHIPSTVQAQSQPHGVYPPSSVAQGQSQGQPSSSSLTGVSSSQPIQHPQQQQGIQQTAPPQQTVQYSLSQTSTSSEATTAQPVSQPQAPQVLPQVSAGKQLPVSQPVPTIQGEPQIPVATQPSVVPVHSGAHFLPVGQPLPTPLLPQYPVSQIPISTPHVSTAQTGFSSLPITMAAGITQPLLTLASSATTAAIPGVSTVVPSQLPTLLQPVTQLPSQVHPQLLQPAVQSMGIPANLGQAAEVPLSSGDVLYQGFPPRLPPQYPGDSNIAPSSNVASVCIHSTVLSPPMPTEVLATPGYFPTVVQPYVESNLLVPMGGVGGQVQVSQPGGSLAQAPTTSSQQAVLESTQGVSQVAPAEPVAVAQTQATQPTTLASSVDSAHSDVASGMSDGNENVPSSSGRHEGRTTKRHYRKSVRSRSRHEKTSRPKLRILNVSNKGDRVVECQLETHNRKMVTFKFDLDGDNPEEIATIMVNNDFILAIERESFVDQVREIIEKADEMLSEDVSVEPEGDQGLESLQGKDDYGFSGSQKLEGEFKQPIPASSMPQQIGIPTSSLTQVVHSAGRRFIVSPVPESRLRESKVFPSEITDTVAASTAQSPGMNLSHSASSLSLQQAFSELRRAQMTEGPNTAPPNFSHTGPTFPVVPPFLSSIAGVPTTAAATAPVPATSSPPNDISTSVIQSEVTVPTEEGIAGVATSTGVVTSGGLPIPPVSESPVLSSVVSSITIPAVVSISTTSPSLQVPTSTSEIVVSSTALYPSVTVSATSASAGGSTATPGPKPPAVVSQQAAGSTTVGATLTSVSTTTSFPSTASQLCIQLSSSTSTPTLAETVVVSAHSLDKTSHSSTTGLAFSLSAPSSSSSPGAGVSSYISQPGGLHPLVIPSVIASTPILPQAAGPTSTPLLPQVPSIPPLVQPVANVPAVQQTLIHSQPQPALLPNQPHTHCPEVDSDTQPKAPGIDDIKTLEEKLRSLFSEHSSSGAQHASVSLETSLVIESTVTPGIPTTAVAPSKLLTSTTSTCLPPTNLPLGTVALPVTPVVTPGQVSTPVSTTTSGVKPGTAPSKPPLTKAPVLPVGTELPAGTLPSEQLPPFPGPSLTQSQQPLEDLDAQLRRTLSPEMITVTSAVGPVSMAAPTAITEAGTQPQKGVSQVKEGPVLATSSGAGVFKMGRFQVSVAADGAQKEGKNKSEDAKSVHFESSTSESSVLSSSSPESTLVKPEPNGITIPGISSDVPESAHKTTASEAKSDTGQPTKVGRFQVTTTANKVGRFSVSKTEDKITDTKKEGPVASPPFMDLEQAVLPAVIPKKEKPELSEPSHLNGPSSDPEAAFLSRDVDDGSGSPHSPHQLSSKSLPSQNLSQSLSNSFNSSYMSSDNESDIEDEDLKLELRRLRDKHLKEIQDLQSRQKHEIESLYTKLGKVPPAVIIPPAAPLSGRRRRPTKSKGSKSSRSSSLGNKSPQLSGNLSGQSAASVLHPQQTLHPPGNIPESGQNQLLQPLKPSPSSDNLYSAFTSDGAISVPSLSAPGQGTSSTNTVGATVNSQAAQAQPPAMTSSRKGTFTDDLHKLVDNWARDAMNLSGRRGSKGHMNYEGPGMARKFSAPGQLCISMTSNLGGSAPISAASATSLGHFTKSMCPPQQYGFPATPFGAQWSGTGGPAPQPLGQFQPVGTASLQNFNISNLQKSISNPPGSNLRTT
Chain of Focal adhesion kinase 1 (Homo sapiens) (Q05397 2-1052 limits assumed): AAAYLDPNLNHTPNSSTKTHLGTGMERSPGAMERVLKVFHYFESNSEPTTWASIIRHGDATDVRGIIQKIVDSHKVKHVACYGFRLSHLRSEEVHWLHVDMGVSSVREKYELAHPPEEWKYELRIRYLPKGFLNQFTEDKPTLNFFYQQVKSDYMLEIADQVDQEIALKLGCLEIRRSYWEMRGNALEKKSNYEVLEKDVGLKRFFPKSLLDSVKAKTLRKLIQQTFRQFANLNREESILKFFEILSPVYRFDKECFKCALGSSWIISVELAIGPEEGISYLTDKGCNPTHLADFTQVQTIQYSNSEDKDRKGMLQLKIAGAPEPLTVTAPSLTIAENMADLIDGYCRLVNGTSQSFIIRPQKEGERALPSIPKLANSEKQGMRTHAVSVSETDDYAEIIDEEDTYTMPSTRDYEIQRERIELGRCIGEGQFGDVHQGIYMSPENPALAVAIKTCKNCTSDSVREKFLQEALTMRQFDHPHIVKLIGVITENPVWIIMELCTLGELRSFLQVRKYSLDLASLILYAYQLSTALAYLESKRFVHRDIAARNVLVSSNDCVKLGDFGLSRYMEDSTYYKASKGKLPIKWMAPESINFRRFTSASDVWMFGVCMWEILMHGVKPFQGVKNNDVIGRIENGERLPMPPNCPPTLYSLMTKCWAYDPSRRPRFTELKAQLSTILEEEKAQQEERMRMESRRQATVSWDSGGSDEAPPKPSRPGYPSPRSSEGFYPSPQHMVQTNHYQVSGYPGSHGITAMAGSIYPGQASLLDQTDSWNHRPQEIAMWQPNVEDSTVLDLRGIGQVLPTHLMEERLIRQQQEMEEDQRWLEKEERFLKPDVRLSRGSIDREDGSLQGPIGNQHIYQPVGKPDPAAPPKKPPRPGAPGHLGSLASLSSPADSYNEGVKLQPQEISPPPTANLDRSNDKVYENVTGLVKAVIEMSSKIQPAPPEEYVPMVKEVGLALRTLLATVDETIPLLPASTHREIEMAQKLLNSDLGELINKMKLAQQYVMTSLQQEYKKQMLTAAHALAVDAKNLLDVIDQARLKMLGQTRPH

For the molecule `Cc1nc(C2CCN(C(=O)c3ccc(OC(F)(F)F)cc3N)CC2)c2ncc(N3CCN(C)CC3)cc2n1` [BAY-693], the residual activity in experiment [1] was 100%; in experiment [2], 99%; in experiment [3] it was 100%; in experiment [4], 100%; in experiment [5] it was 100%; in [6] it was 100%. Moreover, the residual activity in experiment [7] is 94%; in experiment [8], 95%; in experiment [9], 100%; in [10] it was 76%; in experiment [11] it was 100%; in experiment [12] it was 100%. Further, the residual activity is 91% in experiment [13]; 93% in [14]; 91% in [15]; 100% in [16]; 100% in [17]; 97% in experiment [18]. Moreover, the residual activity in experiment [19], in experiment [20] and in experiment [22] was 100% throughout. Further, the inhibition in [21] is 51.4%.

Take `CN1CCN(c2cnc3c(C4CCN(C(=O)c5ccc(OC(F)(F)F)cc5N)CC4)ncnc3c2)CC1` [BAY-885]: the residual activity in experiment [1] was 100%; in experiment [2] it was 98%; in [3] it was 94%; in experiment [4], 100%; in experiment [5], 100%; in [6], 100%. In addition, the residual activity in [7] is 100%; in experiment [8], 95%; in [9], 100%; in experiment [10], 99%; in experiment [11] it was 100%; in experiment [12], 100%. Besides, the residual activity was 94% in experiment [13]; 100% in experiment [14]; 100% in experiment [15]; 100% in experiment [16]; 100% in experiment [17]; 85% in experiment [18]. Also, the residual activity was 89% in experiment [19], 100% in experiment [20] and 100% in [22]. Moreover, the inhibition in experiment [21] was 30.9%.
